Results: US9296732B2, “Substituted benzamides and their uses” (The Board of Trustees of the Leland Stanford Junior …, priority 2012, dated 2016)

Each compound was assayed on RCC4/VHL (assay: XTT cell viability assay, RCC4 with VHL-reintroduced (RCC4/VHL) versus RCC4, selectivity ratio). Details: first TABLE 1 (II series).
Assay type: cell-based
Protocol: (§1) RCC4 parental and RCC4 with VHL-reintroduced (RCC4/VHL), SN12C and SN12C-CSCG-VHL shRNA were maintained in DMEM supplemented with 10% FCS.
(§2) For 2,3-bis[2-methoxy-4-nitro-5-sulfophenyl]-2H-tetrazolium-5-carboxanilide (XTT) assays, five thousand cells were plated in 96-well plates. The next day, vehicle (DMSO) or drug was added by serial dilution. Four days later, media were aspirated, XTT solution (0.3 mg/ml of XTT (Sigma), 2.65 mg/ml N-methyl dibenxopyrazine methyl sulfate (Simga) in phenol red-free media) was added, and the plates were incubated at 37° C. for 1-2 hours. Metabolism of XTT was quantified by measuring the absorbance at 450 nm. IC50s were calculated using linear interpolation. For clonogenic survival assays, three hundred cells were plated per 60 mm tissue culture dish. The cells were allowed to attach overnight and then treated with vehicle or drug for 14 days. Colonies were fixed and stained with crystal violet (0.1% crystal violet in 95% ethanol). All conditions were measured in triplicate and each experiment was done in duplicate or triplicate. To determine necrosis, cells were treated with drug for a given time point. Media and cells were collected, centrifugated, and resuspended in 0.4% trypan blue (Invitrogen). Live and dead cells were counted on a hematocytometer.
(§3) The designation A reflects an IC50 of <1 nM; B reflects an IC50 ranging from 1 to 20 nM; and C is an IC50 of >20 nM. The designation “a” reflects a ratio of RCC4/RCC-VHL+ ranging from 1 to ≦10; “b” reflects from 10 to ≦100; “c” reflects a ratio of >100. Compounds 1-29 have an IC50 value of ≦10 μM when tested in the above assay.

| SMILES | Ratio = IC50RCC4/VHL/IC50RCC4 |
| --- | --- |
| O=C(Nc1cccnc1)c1ccc(CNS(=O)(=O)c2cccnc2)cc1 [II-1, N-(3-Pyridinyl)-4-{[(3-pyridylsulfonyl)amino]methyl}benzamide] | a (a ratio of RCC4/RCC-VHL+ ranging from 1 to ≦10) |
| O=C(Nc1cccnc1)c1ccc(CNS(=O)(=O)c2ccc(Oc3ccccc3)nc2)cc1 [II-3, 4-({[(6-Phenoxy-3-pyridinyl)sulfonyl]amino}methyl)-N-(3-pyridinyl)benzamide] | a (a ratio of RCC4/RCC-VHL+ ranging from 1 to ≦10) |
| O=C(Nc1cccnc1)c1ccc(CNS(=O)(=O)c2cccs2)cc1 [II-4, N-(3-Pyridinyl)-4-{[(2-thienylsulfonyl)amino]methyl}benzamide] | a (a ratio of RCC4/RCC-VHL+ ranging from 1 to ≦10) |
| O=C(Nc1cccnc1)c1ccc(CNS(=O)(=O)c2ccsc2)cc1 [II-5, N-(3-Pyridinyl)-4-{[(3-thienylsulfonyl)amino]methyl}benzamide] | a (a ratio of RCC4/RCC-VHL+ ranging from 1 to ≦10) |
| O=C(Nc1cccnc1)c1ccc(CNS(=O)(=O)c2ccco2)cc1 [II-8, N-(3-Pyridinyl)-4-{[(2-furanylsulfonyl)amino]methyl}benzamide] | a (a ratio of RCC4/RCC-VHL+ ranging from 1 to ≦10) |

Same assay, conditions: second TABLE 1 (Examples 39-55)

| SMILES | Ratio (IC50 RCC4 Proficient VHL)/IC50 RCC4 Deficient VHL) |
| --- | --- |
| Cc1oc(-c2ccc(C(=O)NCc3cccnc3)cc2)nc1CS(=O)(=O)[C@H]1CC[C@@H](N)CC1 [Example 41, 4-(4-(((1s,4s)-4-aminocyclohexylsulfonyl)methyl)-5-methyloxazol-2-yl)-N-(pyridin-3-ylmethyl)benzamide] | b (from 10 to ≦100) |
| Cc1oc(-c2ccc(C(=O)NCc3cccnc3)cc2)nc1CS(=O)(=O)[C@H]1CC[C@H](N)CC1 [Example 44, 4-(4-[[(4-Aminocyclohexane)sulfonyl]methyl]-5-methyl-1,3-oxazol-2-yl)-N-(pyridin-3-ylmethyl)benzamide] | b (from 10 to ≦100) |
| Cc1oc(-c2ccc(C(=O)NCc3cccnc3)cc2)nc1CS(=O)(=O)[C@H]1CC[C@H](N2CCCC2)CC1 [Example 45] | b (from 10 to ≦100) |
| Cc1oc(-c2ccc(C(=O)NCc3cccnc3)cc2)nc1CS(=O)(=O)[C@H]1CC[C@H](N2CCCCC2)CC1 [Example 46] | b (from 10 to ≦100) |
| Cc1oc(-c2ccc(C(=O)NCc3cccnc3)cc2)nc1CS(=O)(=O)[C@H]1CC[C@H](N)C1 [Example 47] | b (from 10 to ≦100) |
| Cc1oc(-c2ccc(C(=O)NCc3cccnc3)cc2)nc1CS(=O)(=O)[C@H]1CC[C@H](N2CCCC2)C1 [Example 48] | b (from 10 to ≦100) |
| Cc1oc(-c2ccc(C(=O)NCc3cccnc3)cc2)nc1CS(=O)(=O)[C@H]1CC[C@H](N2CCCCC2)C1 [Example 49] | b (from 10 to ≦100) |
| Cc1oc(-c2ccc(C(=O)NCc3cccnc3)cc2)nc1CS(=O)(=O)[C@@H]1CC[C@H](N)C1 [Example 50] | b (from 10 to ≦100) |
| Cc1oc(-c2ccc(C(=O)NCc3cccnc3)cc2)nc1CS(=O)(=O)[C@@H]1CC[C@H](N2CCCC2)C1 [Example 51] | b (from 10 to ≦100) |
| Cc1oc(-c2ccc(C(=O)NCc3cccnc3)cc2)nc1CS(=O)(=O)[C@@H]1CC[C@H](N2CCCCC2)C1 [Example 52] | a (a ratio of RCC4/RCC-VHL+ ranging from 1 to ≦10) |
| Cc1oc(-c2ccc(C(=O)NCc3cccnc3)cc2)nc1CS(=O)(=O)C1CCN(CC(C)C)CC1 [Example 53, 4-(5-methyl-4-[[1-(2-methylpropyl)piperidine-4-sulfonyl]methyl]-1,3-oxazol-2-yl)-N-(pyridin-3-ylmethyl)benzamide] | a (a ratio of RCC4/RCC-VHL+ ranging from 1 to ≦10) |
| Cc1oc(-c2ccc(C(=O)NCc3cccnc3)cc2)nc1CS(=O)(=O)C1CCN(C2CCCC2)CC1 [Example 54] | b (from 10 to ≦100) |
| Cc1oc(-c2ccc(C(=O)NCc3cccnc3)cc2)nc1CS(=O)(=O)C1CCN(C2CCCCC2)CC1 [Example 55] | a (a ratio of RCC4/RCC-VHL+ ranging from 1 to ≦10) |

The compounds below were run on RCC4 (assay: XTT cell viability assay in RCC4 parental (VHL-deficient) cells). Details: Homo sapiens, 96 h, four days with drug, second TABLE 1 (Examples 39-55).
Assay type: cell-based
Protocol: as §1, §2, §3

| SMILES | IC50 [nM] |
| --- | --- |
| Cc1oc(-c2ccc(C(=O)NCc3cccnc3)cc2)nc1CS(=O)(=O)[C@H]1CC[C@H](N2CCCCC2)C1 [Example 49] | < 1 |
| Cc1oc(-c2ccc(C(=O)NCc3cccnc3)cc2)nc1CS(=O)(=O)C1CCN(C2CCCCC2)CC1 [Example 55] | < 1 |

Same assay, conditions: four days with drug, second TABLE 1 (Examples 39-55)

| SMILES | IC50 [nM] |
| --- | --- |
| Cc1oc(-c2ccc(C(=O)NCc3cccnc3)cc2)nc1CS(=O)(=O)[C@H]1CC[C@@H](N)CC1 [Example 41, 4-(4-(((1s,4s)-4-aminocyclohexylsulfonyl)methyl)-5-methyloxazol-2-yl)-N-(pyridin-3-ylmethyl)benzamide] | > 20 |
